Source: paper PMC11784839, “Monoaminergic neurotransmitters are bimodal effectors of tau aggregation” (Science Advances, 2025)

Target: tau (Homo sapiens, UniProt P10636)
Assay: MCE Phenols Library screening, tau biosensor cell seeding assay (AvZ)
Type: cell-based
Conditions: for AvZ (average z score of seeding, SDs from the mean level of seeding): 10 μM phenol in cell cultures, AD brain homogenate preincubated 16 hours, two biological replicates, positive = catalyzes seeding, negative = inhibits; for Z repl 1 / Z Repl 2: Z score; for Z repl 1 / raw data 1: replicate 1; for Z Repl 2 / raw data 2: replicate 2
[1] = average puncta of the two replicates
[2] = average Z score of the two replicates, tau seeding
[3] = average Z score of the two replicates, MCE Phenols Library screen
[4] = average Z score of two replicates, Phenols Library screen

tau, sequence (P10636 623-695 limits assumed): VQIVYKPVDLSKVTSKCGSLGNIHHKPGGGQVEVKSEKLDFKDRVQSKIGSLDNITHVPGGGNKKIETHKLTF

Row | Compound | AvZ (average z score of seeding, SDs from the mean level of seeding) | Z repl 1 | Z Repl 2 | av puncta (average of raw data 1 and 2) | raw data 1 (puncta) | raw data 2 (puncta) | av Z (average Z score of the two replicates, tau biosensor seeding, MCE Phenols Library screen) | av puncta [1] | av Z [2] | av Z [3] | raw data 1 (raw puncta) | raw data 2 (raw puncta) | av Z [4]
1 | O=C(O)Cc1ccccc1O [2-Hydroxyphenylacetic acid] | -0.831 | -1.341 | -0.32 | 9796.98 | 10246.8 | 9347.15 | – | – | – | – | – | – | –
2 | COc1cc2c(cc1O)CC[C@@H]1[C@@H]2CC[C@]2(C)[C@@H](O)CC[C@@H]12 [2-Methoxyestradiol] | – | 1.646 | 0.7 | 33178.1 | 46109.4 | 20246.7 | 1.173 | – | – | – | – | – | –
3 | OCCc1ccccc1 [2-Phenylethanol] | 0.671 | 1.167 | 0.175 | 27499.2 | 40362.2 | 14636.1 | – | – | – | – | – | – | –
4 | CC(=O)c1ccc(O)c(O)c1 [3',4'-Dihydroxyacetophenone] | -0.667 | -0.338 | -0.997 | – | 22292.7 | 2117.17 | – | 12205 | – | – | – | – | –
5 | COc1cc(/C=C/c2ccc(O)c(O)c2)cc(OC)c1 [3'-Hydroxypterostilbene] | – | -0.14 | 0.484 | 21302.3 | 24671.3 | 17933.3 | – | – | 0.172 | – | – | – | –
6 | O=c1c(-c2ccc(O)c(O)c2)coc2c([C@@H]3O[C@H](CO)[C@@H](O)[C@H](O)[C@H]3O)c(O)ccc12 [3'-Hydroxypuerarin] | – | -0.715 | -0.346 | – | 17766.4 | 9073.25 | – | 13419.8 | – | -0.53 | – | – | –
7 | COc1cc(-c2coc3c([C@@H]4O[C@H](CO)[C@@H](O)[C@H](O)[C@H]4O)c(O)ccc3c2=O)ccc1O [3'-Methoxypuerarin] | – | 0.567 | -0.096 | 22452.2 | 33160 | 11744.3 | – | – | 0.236 | – | – | – | –
8 | COc1cc(O)cc(OC)c1 [3,5-Dimethoxyphenol] | 0.275 | 0.645 | -0.096 | 22916.8 | 34097.4 | 11736.1 | – | – | – | – | – | – | –
9 | O=C(O)CCc1cccc(O)c1 [3-(3-Hydroxyphenyl)propionic acid] | 1.337 | 1.121 | 1.553 | 34577.7 | 39805 | 29350.4 | – | – | – | – | – | – | –
10 | N[C@@H](Cc1ccc(O)c(Cl)c1)C(=O)O [3-Chloro-L-tyrosine] | -0.032 | 0.451 | -0.515 | 19517.9 | 31767.4 | 7268.49 | – | – | – | – | – | – | –
11 | O=Cc1cccc(O)c1 [3-Hydroxybenzaldehyde] | -0.137 | 0.08 | -0.354 | 18142.7 | 27305.1 | 8980.23 | – | – | – | – | – | – | –
12 | O=C(O)c1cccc(O)c1 [3-Hydroxybenzoic acid] | -0.814 | -0.749 | -0.88 | 10365.4 | 17360.5 | 3370.33 | – | – | – | – | – | – | –
13 | O=C(O)CNC(=O)c1cccc(O)c1 [3-Hydroxyhippuric acid] | 0.023 | 0.493 | -0.448 | 20125.5 | 32267.3 | 7983.73 | – | – | – | – | – | – | –
14 | O=C(O)Cc1cccc(O)c1 [3-Hydroxyphenylacetic acid] | -0.027 | 0.164 | -0.218 | 19376.5 | 28313.1 | 10440 | – | – | – | – | – | – | –
15 | COc1cc(CCN)ccc1O [3-Methoxytyramine] | -0.304 | 0.052 | -0.661 | – | – | – | – | 16341.1 | – | – | 26971.9 | 5710.28 | –
16 | Cc1cccc(O)c1O [3-Methylcatechol] | -0.42 | -0.458 | -0.383 | – | – | – | – | 14763.7 | – | – | 20851.2 | 8676.12 | –
17 | N[C@@H](Cc1ccc(O)c([N+](=O)[O-])c1)C(=O)O [3-Nitro-L-tyrosine] | 1.177 | 0.936 | 1.418 | 32750.4 | 37588.7 | 27912.2 | – | – | – | – | – | – | –
18 | COC(=O)[C@]1(O)C[C@@H](O)[C@@H](O)[C@H](OC(=O)/C=C/c2ccc(O)c(O)c2)C1 [3-O-Caffeoylquinic acid methyl ester] | – | -0.373 | 0.274 | 18786.4 | 21876.3 | 15696.4 | – | – | – | – | – | – | -0.049
19 | COc1cc(C(=O)O)cc(O)c1O [3-O-Methylgallic acid] | -0.786 | -1.04 | -0.532 | 10472 | 13858.8 | 7085.12 | – | – | – | – | – | – | –
20 | O=c1cc(-c2ccc(O)cc2)oc2cccc(O)c12 [4',5-Dihydroxyflavone] | – | 0.443 | 0.397 | 24336.3 | 31664.4 | 17008.3 | – | – | 0.42 | – | – | – | –
21 | CC(=O)c1ccc(O)c(C)c1 [4'-Hydroxy-3'-methylacetophenone] | -0.112 | 0.035 | -0.259 | 18387.5 | 26771.9 | 10003.1 | – | – | – | – | – | – | –
22 | O=C(/C=C/c1ccccc1)c1ccc(O)cc1 [4'-Hydroxychalcone] | – | 0.138 | 0.314 | 22065.5 | 28009.6 | 16121.4 | – | – | 0.226 | – | – | – | –
23 | COc1ccc(/C=C/c2cc(O)cc(O)c2)cc1 [4'-Methoxyresveratrol] | – | 0.613 | 0.599 | 26435.9 | 33711.1 | 19160.7 | – | – | 0.606 | – | – | – | –
24 | COc1cc(O)c(C(=O)/C=C/c2ccc(O)cc2)cc1CC=C(C)C [4'-O-Methylbavachalcone] | – | -0.312 | 0.23 | 18915.2 | 22607.8 | 15222.5 | – | – | – | – | – | – | -0.041
25 | O=C(C=Cc1ccc(O)c(O)c1)OC1CC(O)(C(=O)O)CC(O)C1OC(=O)C=Cc1ccc(O)c(O)c1 (stereo not drawn) [4,5-Dicaffeoylquinic acid] | – | -1.017 | -0.252 | – | 14137.8 | 10071.7 | – | 12104.8 | – | -0.635 | – | – | –
26 | OCC(O)c1ccc(O)c(O)c1 (stereo not drawn) [4-(1,2-Dihydroxyethyl)benzene-1,2-diol] | -0.242 | -0.442 | -0.042 | – | – | – | – | 16682.4 | – | – | 21044.7 | 12320.1 | –
